# Assay results as given in patent US10131656B2, “Organic thin film transistor, method of manufacturing organic thin film transistor, organic thin film transistor material, organic thin film transistor composition, organic semiconductor film, and compound” (FUJIFILM Corporation, priority 2015, dated 2018).
# Experiment: Evaluation of solubility to organic solvent (saturated solubility at room temperature)
# Assay type: physicochemical
# Conditions: room temperature (25° C.); for Solubility to organic solvent Solubility (4): saturated solubility in N,N-dimethylformamide; for Solubility to organic solvent Solubility (2): saturated solubility in chloroform; for Solubility to organic solvent Solubility (3): saturated solubility in tetrahydrofuran; for Solubility to organic solvent Solubility (1): saturated solubility in toluene
# Experimental: 2 mg of each example compound and comparative compound obtained above were weighed, and the saturated solubility (mass %) at room temperature (25° C.) was calculated from the volume and the specific gravity of toluene, chloroform, tetrahydrofuran, and N,N-dimethylformamide. Those having 2 mass % or greater were as set as “A”, those having 1 mass % or greater and less than 2 mass % were set as “B”, those having 0.1 mass % or greater and less than 1 mass % were set as “C”, and those having less than 0.1 mass % were set as “D”. Saturated solubility (hereinafter also referred to as solubility) of each compound in toluene, chloroform, tetrahydrofuran, and N,N-dimethylformamide was presented as Solubility (1) to (4), in the evaluation results of a first table.
SMILES,Solubility to organic solvent Solubility (4),Solubility to organic solvent Solubility (2),Solubility to organic solvent Solubility (3),Solubility to organic solvent Solubility (1)
S=c1c2ccc3c4ccc5c(=S)n(C6CCCCC6)c(=S)c6cc7sc8cc(c(=S)n1C1CCCCC1)c2c3c8c7c4c56 [Example Compound 3],B (those having 1 mass % or greater and less than 2 mass % were set as “B”),B (those having 1 mass % or greater and less than 2 mass % were set as “B”),B (those having 1 mass % or greater and less than 2 mass % were set as “B”),B (those having 1 mass % or greater and less than 2 mass % were set as “B”)
CCCCCCCCCCC(CCCCCCCC)CCn1c(=O)c2ccc3c4ccc5c(=O)n(CCC(CCCCCCCC)CCCCCCCCCC)c(=O)c6cc7sc8cc(c1=O)c2c3c8c7c4c56 (centres unmarked) [Comparative Compound 1],B (those having 1 mass % or greater and less than 2 mass % were set as “B”),A (Those having 2 mass % or greater were as set as “A”),A (Those having 2 mass % or greater were as set as “A”),B (those having 1 mass % or greater and less than 2 mass % were set as “B”)
